From paper PMC4689404, “2-Benzazolyl-4-Piperazin-1-Ylsulfonylbenzenecarbohydroxamic Acids as Novel Selective Histone Deacetylase-6 Inhibitors with Antiproliferative Activity” (PLoS ONE, 2015)
Where two headings read alike, the source gives them in different places.

Legend:
[1] = system: epigenetically silenced GFP transgene in LDR cells; test: locus derepression (LDR) assay, GFP induction; format: cell-based
Procedure: LDR cells were maintained in DMEM with L-glutamine and high glucose, 1 mM sodium pyruvate, 0.1 mM MEM non-essential amino acids, 1% v/v penicillin-streptomycin and 10% heat inactivated FBS. Cells were seeded on glass bottom chambers at low-medium density and allowed to attach overnight. Compounds were then added for 24h at the indicated dose and cells were imaged under a fluorescent microscope equipped with a camera using a 20 or 40X objective. All images shown were exposed for identical time.

[2] = biological target: T1, partially purified HDAC1 from mouse A20 cells (Mus musculus, UniProt O09106); test: HDAC1 activity assay, partially purified enzyme, [3H]acetate-prelabeled histones; format: biochemical
T1 construct: from mouse A20 cells was used as enzyme source; endogenous in cells; host or cells: mouse A20 cells
Excerpt: For inhibition assays, partially purified HDAC1 (70–80 fold enriched relative to crude samples) from mouse A20 cells was used as enzyme source. HDAC1 activity was purified by a combination of anion exchange chromatography (Mono Q), affinity chromatography (Poly-lysin agarose, Heparin Sepharose) and TSK size exclusion chromatography (Jesacher and Loidl, unpublished). HDAC1 protein was identified by immunoblotting using anti mouse HDAC1 antibodies (collaboration with Zymed Laboratories, Inc., San Francisco, California, USA). HDAC activity was determined as described by Sendra et al., [20] using [^3H]acetate-prelabeled chicken reticulocyte histones as substrate. 50 μL of mouse HDAC1 were incubated with different concentrations of compounds for 10 min on ice and 10 μL of total [^3H] acetate pre-labeled chicken reticulocyte histones (4 mg/mL) were added, resulting in a concentration of 41 μM. This mixture was incubated at 37°C for 1 h. The reaction was stopped by addition of 50 μL of 1 M HCl/0.4 M acetylacetate and 1 mL ethylacetate. After centrifugation at 10000 x g for 5 min an aliquot of 600 μL of the upper phase was counted for radioactivity in 3 mL liquid scintillation cocktail.

[3] = system: HBEC-30KT; test: MTS viability assay; format: cell-based, human; conditions: Homo sapiens, 96 h, Patient A normal line, 4 days, read-out: Antiproliferative activity IC50, HBEC-30KT
Procedure: (§1) Lung cancer cells (kindly provided by Dr. John D. Minna, [13, 21]) were maintained in RPMI 1640 media supplemented with 10% FBS. Immortalized normal human bronchial epithelial cells (also provided by Dr. John D. Minna) were cultured in KSFM supplemented with pituitary extract and EGF. For viability assays, cells were plated on 96 well plates and grown overnight. Cells were then exposed to increasing doses of the indicated compounds for 4 days and their viability assayed using the Promega Cell Titer 96 AQueous One kit per the manufacturer’s protocol. All doses were tested in 4–8 replicates. IC50 values were calculated using the in-house software DIVISA.

[4] = system: HBEC-34KT; test: MTS viability assay; format: cell-based, human; conditions: Homo sapiens, 96 h, Patient B normal line, 4 days, read-out: Antiproliferative activity IC50, HBEC-34KT
Procedure: as §1

[5] = biological target: T2, recombinant HDAC1 (Homo sapiens, UniProt Q13547); test: comparative HDAC inhibition assay (Millipore fluorometric kit); format: biochemical; conditions: recombinant HDAC1, fluorometric substrate; Table 4
T2 construct: purchased Epigenetek
Procedure: (§2) For the direct comparison of HDAC1 vs. HDAC6 inhibition, HDAC activity was analyzed using the HDAC Assay Kit from Millipore (17–356). Briefly, recombinant HDAC1 or recombinant HDAC6 (both purchased from Epigenetek, Purity of HDAC1 is more than 60% and purity HDAC6 is more than 85%). was incubated with the fluorometric HDAC substrate according to the manufacturer’s protocol in the presence of DMSO vehicle or increase compound doses. In a secondary activator reaction, the fluorophore is only cleaved from the deacetylated substrate, allowing for quantification. Fluorescence was quantified on a FLUOstar-Optima or a FLUOstar Omega plate reader (BMG Biosciences).

[6] = biological target: T3, recombinant HDAC6 (Homo sapiens, UniProt Q9UBN7); test: as above; format: biochemical
T3 construct: purchased Epigenetek
T3 sequence (Q9UBN7 1-1215): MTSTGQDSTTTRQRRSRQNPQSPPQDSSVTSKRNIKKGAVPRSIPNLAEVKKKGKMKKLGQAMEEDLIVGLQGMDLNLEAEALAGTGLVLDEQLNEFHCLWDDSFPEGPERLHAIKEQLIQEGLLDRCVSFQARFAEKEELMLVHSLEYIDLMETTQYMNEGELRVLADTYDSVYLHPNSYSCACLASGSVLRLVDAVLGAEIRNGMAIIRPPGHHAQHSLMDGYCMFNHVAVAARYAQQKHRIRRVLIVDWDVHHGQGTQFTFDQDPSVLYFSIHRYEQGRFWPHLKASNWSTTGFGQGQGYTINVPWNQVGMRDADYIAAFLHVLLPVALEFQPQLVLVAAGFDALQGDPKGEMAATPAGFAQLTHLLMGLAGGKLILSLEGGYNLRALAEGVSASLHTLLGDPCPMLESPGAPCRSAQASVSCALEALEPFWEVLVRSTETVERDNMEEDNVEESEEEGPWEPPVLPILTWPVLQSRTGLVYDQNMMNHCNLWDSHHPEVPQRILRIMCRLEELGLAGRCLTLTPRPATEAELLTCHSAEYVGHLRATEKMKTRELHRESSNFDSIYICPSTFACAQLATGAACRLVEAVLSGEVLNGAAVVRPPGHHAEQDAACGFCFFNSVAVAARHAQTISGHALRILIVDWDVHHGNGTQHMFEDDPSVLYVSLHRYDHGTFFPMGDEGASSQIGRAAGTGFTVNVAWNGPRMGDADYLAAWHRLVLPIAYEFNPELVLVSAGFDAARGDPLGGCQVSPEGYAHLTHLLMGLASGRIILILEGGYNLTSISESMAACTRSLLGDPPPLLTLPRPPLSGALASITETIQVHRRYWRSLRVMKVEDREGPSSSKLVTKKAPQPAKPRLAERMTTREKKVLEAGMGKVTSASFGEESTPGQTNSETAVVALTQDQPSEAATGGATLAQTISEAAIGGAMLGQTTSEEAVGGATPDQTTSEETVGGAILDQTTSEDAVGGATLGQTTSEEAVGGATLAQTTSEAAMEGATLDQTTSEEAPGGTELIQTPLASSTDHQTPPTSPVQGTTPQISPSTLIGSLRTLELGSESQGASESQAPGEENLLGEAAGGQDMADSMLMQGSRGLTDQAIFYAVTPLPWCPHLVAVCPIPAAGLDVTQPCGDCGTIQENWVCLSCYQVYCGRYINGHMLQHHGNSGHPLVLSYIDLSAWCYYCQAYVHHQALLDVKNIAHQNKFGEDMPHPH
Procedure: as §2

[7] = Table 3, partially purified HDAC1, read-out: HDAC1 IC50
[8] = Table 3, read-out: HDAC6 pIC50 (converted)
[9] = recombinant HDAC6, fluorometric substrate, Table 4, read-out: HDAC6 IC50

T2 sequence (Q13547 whole entry): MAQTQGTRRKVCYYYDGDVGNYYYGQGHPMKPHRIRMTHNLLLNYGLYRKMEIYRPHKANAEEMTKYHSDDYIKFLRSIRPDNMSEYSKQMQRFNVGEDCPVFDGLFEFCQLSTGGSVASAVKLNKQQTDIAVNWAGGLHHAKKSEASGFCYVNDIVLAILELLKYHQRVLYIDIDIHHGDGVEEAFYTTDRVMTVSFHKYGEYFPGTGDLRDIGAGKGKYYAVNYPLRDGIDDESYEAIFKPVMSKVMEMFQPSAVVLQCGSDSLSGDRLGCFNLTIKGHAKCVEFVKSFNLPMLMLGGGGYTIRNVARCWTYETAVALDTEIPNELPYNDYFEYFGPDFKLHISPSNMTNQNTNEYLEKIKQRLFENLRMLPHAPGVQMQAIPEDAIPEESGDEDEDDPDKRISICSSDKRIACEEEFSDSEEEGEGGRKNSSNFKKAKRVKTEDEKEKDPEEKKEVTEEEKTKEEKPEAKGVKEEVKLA
T1 sequence (O09106 whole entry): as the sequence (Q13547 whole entry) above, with R8K, D399E, E424D counted along it

| Compound | activation of the silenced GFP gene (GFP expression) ([1]; compound at 20μM, fluorescence microscopy) | IC50 [2, 7] | IC50 ([2]; partially purified HDAC1 from mouse A20 cells, Fig 4 and text, read-out: HDAC1 Inhibit (IC50)) | IC50 [3] | IC50 [4] | IC50 [5] | IC50 [6, 8] | Selectivity Index HDAC1/HDAC6 ([6]; Table 4) | IC50 [6, 9] | GFP induction / activity in the LDR assay [1] |
| --- | --- | --- | --- | --- | --- | --- | --- | --- | --- | --- |
| Cn1c(N2CCN(S(=O)(=O)c3ccc(C(=O)NO)cc3)CC2)nc2ccccc21 [Compound 9b, 4-[4-(1-methylbenzimidazol-2-yl)piperazin-1-yl]sulfonylbenzenecarbohydroxamic acid] | robust GFP expression | 12.4 µM | ~12 µM | > 10 µM | > 10 µM | 3.7 ± 1.7 µM | 0.1 µM | 28.4 | 0.13 ± 0.07 µM | – |
| O=C(NO)c1ccc(S(=O)(=O)N2CCN(c3nc4ccccc4s3)CC2)cc1 [Compound 9d, 4-(4-Benzothiazol-2-yl-piperazin-1-sulfonyl)-N -hydroxy-benzamid] | – | 4.8 µM | – | 5.37 µM | 8.22 µM | 0.9 ± 0.45 µM | 0.1 µM | – | 0.13 ± 0.02 µM | high level of GFP induction |
| O=C(NO)c1ccc(S(=O)(=O)N2CCN(c3nc4ccccc4o3)CC2)cc1 [Compound 9c, 4-(4-Benzoxazol-2-yl-piperazin-1-sulfonyl)-N -hydroxy-benzamid] | – | 5.7 µM | – | > 10 µM | > 10 µM | 0.92 ± 0.16 µM | 0.2 µM | 4.3 | 0.22 ± 0.04 µM | high level of GFP induction |
